Values quoted from earlier work in patent US20020006908A1, “ANTICONVULSANT DERIVATIVES USEFUL IN TREATING SCHIZOPHRENIA” (priority 1998, published 2002).

Assays:
human epilepsy = conditions: adjunctive therapy or monotherapy, clinical trials of human epilepsy
[1] = test system: rodent models of epilepsy; conditions: several rodent models of epilepsy
[2] = test system: animal model of kindled epilepsy

CC1(C)O[C@@H]2[C@@H](CO[C@@]3(COS(N)(=O)=O)OC(C)(C)O[C@@H]23)O1 [topiramate, 2,3:4,5-bis-O-(1-methylethylidene)-β-D-fructopyranose sulfamate]
efficacy in treating simple and complex partial seizures and secondarily generalized seizures (human epilepsy): effective | seizure block [1]: effectively block seizures | seizure block [2]: effectively block seizures | effect on brain GABA activity (brain GABA activity): enhancement of brain GABA activity | effect on glutamate receptor activity (glutamate receptor): reduced glutamate receptor activity
